Results published in publication PMC10272112 (Nature Communications, 2023).
Where “and” joins values, the source holds several entries; their conditions need not be identical. Identical values can stand only once. Each block holds one compound with its values, some of them ahead of it.

How the values were obtained:
[1] = target: T1, HDAC6-catalytic domain 2 (HDAC6CD2) (Homo sapiens, UniProt Q9UBN7); experiment: NanoBRET intracellular target engagement assay; format: cell-based
T1 construct: HDAC6-catalytic domain 2 (HDAC6CD2); expressed in transfected cells
T1 sequence (Q9UBN7 482-800 limits assumed): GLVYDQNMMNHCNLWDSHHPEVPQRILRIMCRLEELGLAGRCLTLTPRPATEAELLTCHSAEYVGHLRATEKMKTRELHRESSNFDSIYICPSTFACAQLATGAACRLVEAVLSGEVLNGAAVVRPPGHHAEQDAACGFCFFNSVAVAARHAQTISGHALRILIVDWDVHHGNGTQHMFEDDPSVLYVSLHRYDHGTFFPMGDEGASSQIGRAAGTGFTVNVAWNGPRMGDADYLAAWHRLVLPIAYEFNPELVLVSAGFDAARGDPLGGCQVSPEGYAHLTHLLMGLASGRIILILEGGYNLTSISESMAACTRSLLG
Method: For the production of transfected HeLa mono-clones stably expressing HDAC-nanoBRET fusion proteins of HDAC10 and HDAC6-catalytic domain 2 (HDAC6CD2), plasmids expressing a fusion of HDAC10 with nanoluciferase were obtained from Promega (N2170). HeLa cells (0.75 × 10^6) were seeded in a 6 cm dish and were transfected with a mix of 10 μg plasmid and 3 μL Fugene in 200 μL OptiMEM after 24 h. The intracellular target engagement assay on HDAC10 and HDAC6CD2 was performed using the NanoBRET™ Target Engagement Intracellular HDAC Assay (Promega N2081 and N2090) as described by the kit manufacturer in a 96-well plate (Corning 3600) format with 2 × 10^4 cells per well and a tracer concentration of 0.3 μM. Inhibitors were dosed with a D300e Digital Dispenser (Tecan). DMSO concentrations were normalized to 0.5% for all wells. After dosing, assay plates were shaken at 800 rpm and incubated at 37 °C for 2 h followed by measurement of 450 nm and 650 nm luminescence (80 nm bandwidth) at room temperature with a CLARIOstar (BMG Labtech) plate reader 2 min after NanoLuc substrate addition.

HDAC1 = HDAC1 (Homo sapiens, UniProt Q13547); experiment: HDAC-Glo assay; format: biochemical; design: purchased BPS Bioscience 50051; settings: for EC50: read-out: log EC50 from dose-dependent HDAC inhibition curves (converted)
Method: To validate the inhibition of HDACs by LA and LM and elaborate on the structure-activity relationship (SAR) of enantiomers as well as oxidized versus reduced forms of the molecules, we performed enzyme activity assays for recombinant HDAC1,2,3,6,8 as well as FRET-based binding assay for recombinant HDAC10.
The experiments were performed according to ref. [48]. […] Drug dosing was performed with a D300e Digital Dispenser (Tecan). HDACs (7 ng/mL for HDAC1, 25 ng/mL for HDAC2, 200 ng/mL for HDAC3/Ncor2 complex, 100 ng/mL for HDAC6, 200 ng/mL for HDAC8) and inhibitors were incubated together at room temperature (RT) for 30 min. After the addition of the HDAC-Glo™ I/II reagent, plates were shaken (800 rpm orbital shaker, 30 s), centrifuged (300 g, 1 min), and incubated at RT for 30 min. Luminescence was detected with a CLARIOstar (BMG Labtech) plate reader.

[2] = 0.5 M TCEP, log10 M -3.30103, 3 technical replicates
[3] = 0.5 M TCEP, log10 M -3.82945, 3 technical replicates
[4] = 0.5 M TCEP, log10 M -4.35788, 3 technical replicates
[5] = 0.5 M TCEP, log10 M -4.88629, 3 technical replicates
[6] = 0.5 M TCEP, log10 M -5.41477, 3 technical replicates
[7] = 0.5 M TCEP, log10 M -5.94309, 3 technical replicates
[8] = 0.5 M TCEP, log10 M -6.47756, 3 technical replicates
[9] = 0.5 M TCEP, log10 M -6.87615, 3 technical replicates

Chain of HDAC1 (Q13547 whole entry): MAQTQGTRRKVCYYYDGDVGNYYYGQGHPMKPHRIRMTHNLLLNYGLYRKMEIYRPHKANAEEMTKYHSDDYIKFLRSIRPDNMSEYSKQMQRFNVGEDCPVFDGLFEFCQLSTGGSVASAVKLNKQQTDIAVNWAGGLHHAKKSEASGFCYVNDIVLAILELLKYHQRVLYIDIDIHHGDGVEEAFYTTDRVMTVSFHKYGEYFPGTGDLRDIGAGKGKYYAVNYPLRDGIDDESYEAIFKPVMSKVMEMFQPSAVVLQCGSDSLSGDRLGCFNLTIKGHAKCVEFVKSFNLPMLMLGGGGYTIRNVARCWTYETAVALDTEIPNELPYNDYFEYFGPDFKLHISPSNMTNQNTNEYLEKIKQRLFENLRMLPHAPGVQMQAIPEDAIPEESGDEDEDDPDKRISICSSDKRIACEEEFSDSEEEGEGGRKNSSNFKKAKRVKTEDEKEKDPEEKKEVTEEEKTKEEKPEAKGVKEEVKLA

SMILES: O=C(O)CCCCC1CCSS1 (racemic) [(R/S)-LA, (R/S)-lipoic acid]
- potency of intracellular target engagement and HDAC substrate hyperacetylation ([1]; peer review response): 50 to 300 µM
- HDAC enzymatic activity (normalized luminescence) (HDAC1; [2]): 2.253 and 2.122 and 2.222
- raw luminescence signal, HDAC1 inhibition (HDAC1; [2]): 9033 and 8544 and 8916
- HDAC enzymatic activity (normalized luminescence) (HDAC1; [3]): 6.603 and 6.6 and 6.7561
- raw luminescence signal, HDAC1 inhibition (HDAC1; [3]): 25221 and 25211 and 25792
- HDAC enzymatic activity (normalized luminescence) (HDAC1; [4]): 20.3513 and 20.4988 and 20.2352
- raw luminescence signal, HDAC1 inhibition (HDAC1; [4]): 76389 and 76938 and 75957
- HDAC enzymatic activity (normalized luminescence) (HDAC1; [5]): 44.8545 and 45.009 and 46.4019
- raw luminescence signal, HDAC1 inhibition (HDAC1; [5]): 167582 and 168157 and 173341
- HDAC enzymatic activity (normalized luminescence) (HDAC1; [6]): 75.7737 and 78.1543 and 78.9575
- raw luminescence signal, HDAC1 inhibition (HDAC1; [6]): 282653 and 291513 and 294502
- HDAC enzymatic activity (normalized luminescence) (HDAC1; [7]): 89.586 and 92.205 and 92.7553
- raw luminescence signal, HDAC1 inhibition (HDAC1; [7]): 334058 and 343805 and 345853
- HDAC enzymatic activity (normalized luminescence) (HDAC1; [8]): 95.6344 and 96.1277 and 99.0353
- raw luminescence signal, HDAC1 inhibition (HDAC1; [8]): 356568 and 358404 and 369225
- HDAC enzymatic activity (normalized luminescence) (HDAC1; [9]): 97.1294 and 100.284 and 101.314
- raw luminescence signal, HDAC1 inhibition (HDAC1; [9]): 362132 and 373872 and 377707
- HDAC enzymatic activity (normalized luminescence) (HDAC1; no TCEP, log10 M -3.30103, 3 technical replicates): 34.5758 and 34.0329 and 33.4507
- HDAC enzymatic activity (normalized luminescence) (HDAC1; no TCEP, log10 M -3.82945, 3 technical replicates): 69.9436 and 70.5688 and 71.7678
- HDAC enzymatic activity (normalized luminescence) (HDAC1; no TCEP, log10 M -4.35788, 3 technical replicates): 91.6791 and 90.2694 and 91.9437
- HDAC enzymatic activity (normalized luminescence) (HDAC1; no TCEP, log10 M -4.88629, 3 technical replicates): 97.2441 and 96.7873 and 98.245
- HDAC enzymatic activity (normalized luminescence) (HDAC1; no TCEP, log10 M -5.41477, 3 technical replicates): 102.844 and 103.267 and 105.666
- HDAC enzymatic activity (normalized luminescence) (HDAC1; no TCEP, log10 M -5.94309, 3 technical replicates): 103.58 and 104.044 and 104.328
- HDAC enzymatic activity (normalized luminescence) (HDAC1; no TCEP, log10 M -6.47756, 3 technical replicates): 103.305 and 103.257 and 103.904
- HDAC enzymatic activity (normalized luminescence) (HDAC1; no TCEP, log10 M -6.87615, 3 technical replicates): 102.627 and 100.722 and 100.875
- EC50 (HDAC1): 11.4 µM
- HDAC1 relative activity (HDAC1; sheet S2b, log conc -3.30103): 1.283 and 1.298 and 1.278
- HDAC1 relative activity (HDAC1; sheet S2b, log conc -3.82945): 3.514 and 3.391 and 3.355
- HDAC1 relative activity (HDAC1; sheet S2b, log conc -4.35788): 11.0684 and 11.0093 and 10.6578
- HDAC1 relative activity (HDAC1; sheet S2b, log conc -4.88629): 24.6308 and 24.7045 and 25.3305
- HDAC1 relative activity (HDAC1; sheet S2b, log conc -5.41477): 53.4112 and 53.3483 and 54.8189
- HDAC1 relative activity (HDAC1; sheet S2b, log conc -5.94309): 78.0321 and 77.9262 and 78.089
- HDAC1 relative activity (HDAC1; sheet S2b, log conc -6.47756): 94.813 and 93.3015 and 93.5028
- HDAC1 relative activity (HDAC1; sheet S2b, log conc -6.87615): 93.4945 and 92.0736 and 92.8885
- HDAC1 relative activity (HDAC1; sheet S2d, log conc -3.30103): 2.253 and 2.122 and 2.222
- HDAC1 relative activity (HDAC1; sheet S2d, log conc -3.82945): 6.603 and 6.6 and 6.7561
- HDAC1 relative activity (HDAC1; sheet S2d, log conc -4.35788): 20.3513 and 20.4988 and 20.2352
- HDAC1 relative activity (HDAC1; sheet S2d, log conc -4.88629): 44.8545 and 45.009 and 46.4019
- HDAC1 relative activity (HDAC1; sheet S2d, log conc -5.41477): 75.7737 and 78.1543 and 78.9575
- HDAC1 relative activity (HDAC1; sheet S2d, log conc -5.94309): 89.586 and 92.205 and 92.7553
- HDAC1 relative activity (HDAC1; sheet S2d, log conc -6.47756): 95.6344 and 96.1277 and 99.0353
- HDAC1 relative activity (HDAC1; sheet S2d, log conc -6.87615): 97.1294 and 100.284 and 101.314

- intracellular binding to HDAC6 ([1]; HeLa cells): dose-dependent intracellular binding
- IC50 ([1]; HeLa cells, 2 h, read-out: concentration of half maximal HDAC6 inhibition): 35 µM
- raw luminescence signal, HDAC1 inhibition (HDAC1; [2]): 5424 and 5479 and 5403
- raw luminescence signal, HDAC1 inhibition (HDAC1; [3]): 13727 and 13267 and 13133
- raw luminescence signal, HDAC1 inhibition (HDAC1; [4]): 41841 and 41621 and 40313
- raw luminescence signal, HDAC1 inhibition (HDAC1; [5]): 92316 and 92590 and 94920
- raw luminescence signal, HDAC1 inhibition (HDAC1; [6]): 199427 and 199193 and 204666
- raw luminescence signal, HDAC1 inhibition (HDAC1; [7]): 291058 and 290664 and 291270
- raw luminescence signal, HDAC1 inhibition (HDAC1; [8]): 353511 and 347886 and 348635
- raw luminescence signal, HDAC1 inhibition (HDAC1; [9]): 348604 and 343316 and 346349
- EC50 (HDAC1): 4.62 µM
- HDAC1 relative activity (HDAC1; sheet S2b, log conc -3.30103): 71.5662 and 71.4067 and 71.4672
- HDAC1 relative activity (HDAC1; sheet S2b, log conc -3.82945): 85.3568 and 84.4089 and 84.9362
- HDAC1 relative activity (HDAC1; sheet S2b, log conc -4.35788): 99.571 and 98.7787 and 97.4651
- HDAC1 relative activity (HDAC1; sheet S2b, log conc -4.88629): 94.8867 and 95.3188 and 94.2715
- HDAC1 relative activity (HDAC1; sheet S2b, log conc -5.41477): 102.996 and 104.783 and 104.694
- HDAC1 relative activity (HDAC1; sheet S2b, log conc -5.94309): 100.727 and 101.673 and 102.371
- HDAC1 relative activity (HDAC1; sheet S2b, log conc -6.47756): 104.216 and 103.707 and 104.551
- HDAC1 relative activity (HDAC1; sheet S2b, log conc -6.87615): 97.8849 and 97.6343 and 99.4595
SMILES: NC(=O)CCCCC1CCSS1 (racemic) [(R/S)-LM, (R/S)-lipoamide]
